From patent publication EP3046573B1, “AMYLIN ANALOGUES” (Zealand Pharma A/S, priority 2013, dated 2015)
Like-named read-outs stand apart in the source and are kept apart here. Numbered stars: 1 amine (or outer) side, 2 acyl side, 3 side chain; on linkers, the order of the positions; unused ones are H or OH. Bridge positions count the residues as written; N and C are the ends. Square brackets hold non-standard residues; d marks the D form. Peptide text beside a SMILES is read from it. * marks the point of attachment. C20 diacid = O=C(O)CCCCCCCCCCCCCCCCCCC(=O)*; C16 diacid = O=C(O)CCCCCCCCCCCCCCC(=O)*; γGlu = O=C(O)[C@H](CCC(=O)[*:2])N[*:1]; NMeI = CC[C@H](C)[C@H](NC)C(=O)O; Sar = CNCC(=O)O

Columns and labels:
[1] = Solubility assessment (turbidity absorbance at 325 nm); format: physicochemical; settings: stock 2 mg/ml diluted 1:1, ambient temperature (typically 25°C), n=1; for Solubility, Acetate buffer pH 4: 100 mM acetate buffer pH 4.0; for Solubility, Acetate buffer pH 5: 100 mM acetate buffer pH 5.0; for Solubility, Histidine buffer pH 6: 100 mM histidine buffer pH 6.0; for Solubility, Histidine buffer pH 7: 100 mM histidine buffer pH 7.0; for Solubility, Phosphate buffer pH 6: 100 mM phosphate buffer pH 6.0; for Solubility, Phosphate buffer pH 7: 100 mM phosphate buffer pH 7.0; for Solubility, Phosphate buffer pH 7.5: 100 mM phosphate buffer pH7.5
How it was run: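 Stock 2 mg/ml peptide, H2O/HCl pH 2.5; 1:1 into 100 mM buffers: acetate pH 4.0/5.0, His pH 6.0/7.0, phosphate pH 6.0/7.0/7.5. A280 + A325, ~25°C, n=1. Soluble ≥ 1 mg/ml if A325 ≤ 0.02.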

[2] = biological target: T1, human calcitonin receptor (hCTR2) (Homo sapiens, UniProt P30988); test: hCTR2 assay: induction of cAMP (AlphaScreen cAMP Assay kit) in COS7 cells expressing hCTR2; format: cell-based
T1 construct: expressed in transfected cells
T1 sequence (P30988 25-474): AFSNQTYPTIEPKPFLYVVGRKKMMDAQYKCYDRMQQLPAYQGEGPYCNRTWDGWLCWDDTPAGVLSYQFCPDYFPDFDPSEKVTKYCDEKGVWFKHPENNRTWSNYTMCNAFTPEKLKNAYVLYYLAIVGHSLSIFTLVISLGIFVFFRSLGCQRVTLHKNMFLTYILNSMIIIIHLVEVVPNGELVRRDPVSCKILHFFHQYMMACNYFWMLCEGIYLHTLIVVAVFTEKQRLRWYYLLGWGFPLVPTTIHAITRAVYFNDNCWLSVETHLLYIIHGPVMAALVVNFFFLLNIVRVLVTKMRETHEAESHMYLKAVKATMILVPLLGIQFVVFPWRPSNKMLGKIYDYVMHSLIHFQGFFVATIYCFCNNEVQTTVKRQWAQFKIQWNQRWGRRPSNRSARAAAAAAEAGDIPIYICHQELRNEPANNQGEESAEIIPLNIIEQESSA
How it was run: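 COS7 stable hCTR2 clone (RAMP-free); peptide dose-response 15 min 37° C in Tyrode pH 7.4 + 100 µM IBMX + 0.1% casein; lysis 10 min RT; AlphaScreen cAMP; 4PL fit.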

| Structure (SMILES) | Solubility, Acetate buffer pH 4 [1] | Solubility, Acetate buffer pH 5 [1] | Solubility, Histidine buffer pH 6 [1] | Solubility, Histidine buffer pH 7 [1] | Solubility, Phosphate buffer pH 6 [1] | Solubility, Phosphate buffer pH 7 [1] | Solubility, Phosphate buffer pH 7.5 [1] | EC50 [2] [pM] | EC50 ([2]; cAMP induction in COS7 cells expressing hCTR2, average of a minimum of 3 determinations, read-out: hCTR2 EC50) [pM] |
| --- | --- | --- | --- | --- | --- | --- | --- | --- | --- |
| CC[C@H](C)[C@@H](C(=O)N[C@@H](CC(C)C)C(=O)N[C@@H](CO)C(=O)N[C@@H](CO)C(=O)N[C@H](C(=O)N[C@@H](CC(N)=O)C(=O)N[C@H](C(=O)NCC(=O)N[C@@H](CO)C(=O)N[C@@H](CC(N)=O)C(=O)N[C@H](C(=O)N1CCC[C@H]1C(N)=O)[C@@H](C)O)C(C)C)[C@@H](C)O)N(C)C(=O)[C@H](C)NC(=O)CN(C)C(=O)[C@H](Cc1ccccc1)NC(=O)[C@H](CC(N)=O)NC(=O)[C@H](CC(N)=O)NC(=O)[C@H](CO)NC(=O)[C@H](CO)NC(=O)[C@H](CCCNC(=N)N)NC(=O)[C@H](Cc1c[nH]cn1)NC(=O)[C@H](CC(C)C)NC(=O)[C@H](Cc1ccccc1)NC(=O)[C@H](CCC(=O)O)NC(=O)[C@H](C)NC(=O)[C@H](CC(C)C)NC(=O)[C@H](CCCNC(=N)N)NC(=O)[C@H](CCC(N)=O)NC(=O)[C@@H](NC(=O)[C@H](C)NC(=O)[C@@H]1CSSC[C@H](NC(=O)[C@H](CCCNC(=N)N)NC(=O)CC[C@H](NC(=O)CCCCCCCCCCCCCCC(=O)O)C(=O)O)C(=O)N[C@@H](CC(N)=O)C(=O)N[C@@H]([C@@H](C)O)C(=O)N[C@@H](C)C(=O)N[C@@H]([C@@H](C)O)C(=O)N1)[C@@H](C)O [Compound 90, [15CD]-isoGlu-RC()NTATC()ATQRLAEFLHRSSNNF-Gly(Me)-A-Ile(Me)-LSSTNVGSNTP-NH2] ({C16 diacid-γGlu}-RCNTATCATQRLAEFLHRSSNNF[Sar]A[NMeI]LSSTNVGSNTP-NH2; disulfide 2-7) | SS (SS indicates solubility ≥ 1mg/ml) | SS (SS indicates solubility ≥ 1mg/ml) | SS (SS indicates solubility ≥ 1mg/ml) | SS (SS indicates solubility ≥ 1mg/ml) | SS (SS indicates solubility ≥ 1mg/ml) | SS (SS indicates solubility ≥ 1mg/ml) | SS (SS indicates solubility ≥ 1mg/ml) | 66 |  |
| CC[C@H](C)[C@@H](C(=O)N[C@@H](CC(C)C)C(=O)N[C@@H](CO)C(=O)N[C@@H](CO)C(=O)N[C@H](C(=O)N[C@@H](CC(N)=O)C(=O)N[C@H](C(=O)NCC(=O)N[C@@H](CO)C(=O)N[C@@H](CC(N)=O)C(=O)N[C@H](C(=O)N1CCC[C@H]1C(N)=O)[C@@H](C)O)C(C)C)[C@@H](C)O)N(C)C(=O)[C@H](C)NC(=O)CN(C)C(=O)[C@H](Cc1ccccc1)NC(=O)[C@H](CC(N)=O)NC(=O)[C@H](CC(N)=O)NC(=O)[C@H](CO)NC(=O)[C@H](CO)NC(=O)[C@H](CCCNC(=N)N)NC(=O)[C@H](Cc1c[nH]cn1)NC(=O)[C@H](CC(C)C)NC(=O)[C@H](Cc1ccccc1)NC(=O)[C@H](CCC(=O)O)NC(=O)[C@H](C)NC(=O)[C@H](CC(C)C)NC(=O)[C@H](CCCNC(=N)N)NC(=O)[C@H](CCC(N)=O)NC(=O)[C@@H](NC(=O)[C@H](C)NC(=O)[C@@H]1CSSC[C@H](NC(=O)[C@H](CCCCN)NC(=O)[C@H](CCCNC(=N)N)NC(=O)CC[C@H](NC(=O)CCCCCCCCCCCCCCCCCCC(=O)O)C(=O)O)C(=O)N[C@@H](CC(N)=O)C(=O)N[C@@H]([C@@H](C)O)C(=O)N[C@@H](C)C(=O)N[C@@H]([C@@H](C)O)C(=O)N1)[C@@H](C)O [Compound 86, [19CD]-isoGlu-RKC()NTATC()ATQRLAEFLHRSSNNF-Gly(Me)-A-Ile(Me)-LSSTNVGSNTP-NH2] ({C20 diacid-γGlu}-RKCNTATCATQRLAEFLHRSSNNF[Sar]A[NMeI]LSSTNVGSNTP-NH2; disulfide 3-8) | SS (SS indicates solubility ≥ 1mg/ml) | SS (SS indicates solubility ≥ 1mg/ml) | SS (SS indicates solubility ≥ 1mg/ml) | SS (SS indicates solubility ≥ 1mg/ml) | SS (SS indicates solubility ≥ 1mg/ml) | SS (SS indicates solubility ≥ 1mg/ml) | SS (SS indicates solubility ≥ 1mg/ml) | 65 |  |
| CC[C@H](C)[C@@H](C(=O)N[C@@H](CC(C)C)C(=O)N[C@@H](CO)C(=O)N[C@@H](CO)C(=O)N[C@H](C(=O)N[C@@H](CC(=O)O)C(=O)N[C@H](C(=O)NCC(=O)N[C@@H](CO)C(=O)N[C@@H](CCC(=O)O)C(=O)N[C@H](C(=O)N1CCC[C@H]1C(N)=O)[C@@H](C)O)C(C)C)[C@@H](C)O)N(C)C(=O)[C@H](C)NC(=O)CN(C)C(=O)[C@H](Cc1ccccc1)NC(=O)[C@H](CO)NC(=O)[C@H](CO)NC(=O)[C@H](CCCNC(=N)N)NC(=O)[C@H](Cc1c[nH]cn1)NC(=O)[C@H](CC(C)C)NC(=O)[C@H](Cc1ccccc1)NC(=O)[C@H](CCC(=O)O)NC(=O)[C@H](C)NC(=O)[C@H](CC(C)C)NC(=O)[C@H](CCCNC(=N)N)NC(=O)[C@H](CCC(N)=O)NC(=O)[C@@H](NC(=O)[C@H](C)NC(=O)[C@@H]1CSSC[C@H](NC(=O)[C@H](CCCNC(=N)N)NC(=O)CC[C@H](NC(=O)CCCCCCCCCCCCCCCCCCC(=O)O)C(=O)O)C(=O)N[C@@H](CC(N)=O)C(=O)N[C@@H]([C@@H](C)O)C(=O)N[C@@H](C)C(=O)N[C@@H]([C@@H](C)O)C(=O)N1)[C@@H](C)O [Compound 80, [19CD]-isoGlu-RC()NTATC()ATQRLAEFLHRSSF-Gly(Me)-A-Ile(Me)-LSSTDVGSETP-NH2] ({C20 diacid-γGlu}-RCNTATCATQRLAEFLHRSSF[Sar]A[NMeI]LSSTDVGSETP-NH2; disulfide 2-7) | SS (SS indicates solubility ≥ 1mg/ml) | SS (SS indicates solubility ≥ 1mg/ml) | II (II indicates solubility ≤ 1 mg/ml) | SS (SS indicates solubility ≥ 1mg/ml) | SS (SS indicates solubility ≥ 1mg/ml) | SS (SS indicates solubility ≥ 1mg/ml) | SS (SS indicates solubility ≥ 1mg/ml) |  | 62 |
| CC[C@H](C)[C@@H](C(=O)N[C@@H](CC(C)C)C(=O)N[C@@H](CO)C(=O)N[C@@H](CO)C(=O)N[C@H](C(=O)N[C@@H](CC(N)=O)C(=O)N[C@H](C(=O)NCC(=O)N[C@@H](CO)C(=O)N[C@@H](CC(N)=O)C(=O)N[C@H](C(=O)N1CCC[C@H]1C(N)=O)[C@@H](C)O)C(C)C)[C@@H](C)O)N(C)C(=O)[C@H](C)NC(=O)CN(C)C(=O)[C@H](Cc1ccccc1)NC(=O)[C@H](CC(N)=O)NC(=O)[C@H](CC(N)=O)NC(=O)[C@H](CO)NC(=O)[C@H](CO)NC(=O)[C@H](Cc1c[nH]cn1)NC(=O)[C@H](CCCNC(=N)N)NC(=O)[C@H](CC(C)C)NC(=O)[C@H](Cc1ccccc1)NC(=O)[C@H](CCC(=O)O)NC(=O)[C@H](C)NC(=O)[C@H](CC(C)C)NC(=O)[C@H](CCCNC(=N)N)NC(=O)[C@H](CCC(N)=O)NC(=O)[C@@H](NC(=O)[C@H](C)NC(=O)[C@@H]1CSSC[C@H](NC(=O)[C@H](CCCNC(=N)N)NC(=O)CC[C@H](NC(=O)CCCCCCCCCCCCCCCCCCC(=O)O)C(=O)O)C(=O)N[C@@H](CC(N)=O)C(=O)N[C@@H]([C@@H](C)O)C(=O)N[C@@H](C)C(=O)N[C@@H]([C@@H](C)O)C(=O)N1)[C@@H](C)O [Compound 21, [19CD]-isoGlu-RC()NTATC()ATQRLAEFLRHSSNNF-Gly(Me)-A-Ile(Me)-LSSTNVGSNTP-NH2] ({C20 diacid-γGlu}-RCNTATCATQRLAEFLRHSSNNF[Sar]A[NMeI]LSSTNVGSNTP-NH2; disulfide 2-7) | SS (SS indicates solubility ≥ 1mg/ml) | SS (SS indicates solubility ≥ 1mg/ml) | SS (SS indicates solubility ≥ 1mg/ml) | SS (SS indicates solubility ≥ 1mg/ml) | SS (SS indicates solubility ≥ 1mg/ml) | SS (SS indicates solubility ≥ 1mg/ml) | SS (SS indicates solubility ≥ 1mg/ml) | 380 |  |
